Counter-ions that a name gives are not always drawn.
Assays:
MIN6 cell = experiment: Insulin secretion enhancing action in cultured β-cell (MIN6); type: cell-based; conditions: for Amount of secreted insulin (ng/ml) avg: in the presence of 14.5 mM glucose; for insulin secretion enhancing action at low glucose: low glucose concentration (5 mM), controls for comparison
Method: Culture of the MIN6 cells and insulin secretion test utilizing the MIN6 cells were performed basically according to the methods described in literature (Ishihara et al., Diabetologia, vol. 36, pp.1139-1145, 1993). The effect of a compound on the insulin secretion in the presence of 14.5 mM glucose was determined by measuring insulin amounts in cell culture supernatants collected as follows. MIN6 cells cultured on a 24-well plate were washed twice by using 1 ml of Buffer A (119 mM sodium chloride, 4.74 mM potassium chloride, 2.54 mM calcium chloride, 1.19 mM magnesium sulfate, 1.19 mM potassium dihydrogenphosphate, 10 mM 2-[4-(2-hydroxyethyl)-1-piperazinyl]ethanesulfonic acid, 0.1% bovine serum albumin, pH 7.3) containing 2 mM glucose, and then were incubated in 1 ml of Buffer A containing 2 mM glucose at 37° C. for 45 minutes. After the incubation, the culture supernatant was changed to Buffer A (0.9 ml) containing a test compound at various concentrations and 2 mM glucose, and the cells were further incubated at 37° C. for 15 minutes. The MIN6 cells were stimulated with glucose by the addition of Buffer A (0.1 ml) containing 127 mM glucose to the culture (final glucose concentration: 14.5 mM). After the stimulation, the cells were further incubated at 37° C. for 45 minutes, and then the culture supernatant was collected.
Separately, the effect of a compound on the insulin secretion in the presence of 5 mM glucose was determined by measuring insulin amounts in cell culture supernatants collected as follows. MIN6 cells cultured on a 24-well plate were washed twice by using 1 ml of Buffer A containing 5 mM glucose, and then the culture supernatant was changed to Buffer A (0.9 ml) containing a test compound at various concentrations and 5 mM glucose. Then, the cells were incubated at 37° C. for 45 minutes (final glucose concentration: 5 mM), and the culture supernatant was collected.
After the culture supernatant was diluted with a phosphate buffer containing 1% bovine serum albumin, 0.1% Tween 20, 0.12% disodium ethylenediaminetetraacetate and 0.1% sodium azide, antibody-reactive insulin secreted in the culture supernatant was quantified by enzyme immunoassay or radio immunoassay. […] The results are indicated as averages (avg) for 3 to 4 samples with standard error values (se).

| melting point [°C] | Structure (SMILES) | also measured |
| --- | --- | --- |
| 109 to 112 | CCCN1C(=O)N2C[C@H](C(C)C)N=C2c2[nH]c(C3CCCC3)nc21.Cl | – |
| 146 to 148 | CCCCC1CN2C(=O)N(CCC)c3nc(C4CCCC4)[nH]c3C2=N1.Cl (centres unmarked) | – |
| 215 to 217 | CCCN1C(=O)N2CC(Cc3ccc([N+](=O)[O-])cc3)N=C2c2[nH]c(C3CCCC3)nc21.Cl (centres unmarked) | – |
| 198 to 200 | CCCN1C(=O)N2C[C@@H](Cc3ccccc3)N=C2c2c1ncn2Cc1ccccc1.Cl | – |
| 191 to 192 | CCCc1nc2c([nH]1)C1=NC(Cc3ccc(Cl)cc3)CN1C(=O)N2CCC.Cl (centres unmarked) | – |
| 214 to 215 | CCCN1C(=O)N2CC(Cc3ccc(Cl)cc3)N=C2c2[nH]c(C3CCC3)nc21.Cl (centres unmarked) | – |
| 199 to 200 | CCCc1nc2c([nH]1)C1=NC(Cc3ccc(F)cc3)CN1C(=O)N2CCC.Cl (centres unmarked) | – |
| 193 to 196 | CCCCc1nc2c([nH]1)C1=NC(Cc3ccc(F)cc3)CN1C(=O)N2CCC.Cl (centres unmarked) | – |
| 139 to 140 | CCCc1nc2c([nH]1)C1=NC(Cc3cccc(F)c3)CN1C(=O)N2CCC.Cl (centres unmarked) | – |
| 164 to 165 | CCCN1C(=O)N2CC(Cc3cccc(F)c3)N=C2c2[nH]c(C3CCC3)nc21.Cl (centres unmarked) | – |
| 186 to 187 | CCCN1C(=O)N2CC(Cc3cccc(F)c3)N=C2c2[nH]c(CC(C)C)nc21 (centres unmarked) | – |
| 218 to 219 | CCCN1C(=O)N2C[C@@H](C)N=C2c2[nH]c(C3CCCC3)nc21.Cl | – |
| 159 to 160 | CCCN1C(=O)N2CC(Cc3ccccc3F)N=C2c2[nH]c(CC(C)C)nc21 (centres unmarked) | – |
| 156 to 157 | CCCN1C(=O)N2C[C@H](C(C)C)N=C2c2[nH]c(C(C)C)nc21.Cl | – |
| 116 to 118 | CCCN1C(=O)N2C[C@@H](C(C)C)N=C2c2[nH]c(C3CCCC3)nc21.Cl | – |
| 214 to 216 | CCCN1C(=O)N2C[C@@H](Cc3ccccc3)N=C2c2[nH]c(C3CCC3)nc21 (as salt: hydrochloride) [Compound 37, (R)-8-benzyl-2-cyclobutyl-7,8-dihydro-4-propyl-1H-imidazo[2,1-i]purin-5(4H)-one hydrochloride] | – |
| 220 to 222 | CCCN1C(=O)N2C[C@@H](Cc3ccccc3)N=C2c2[nH]c(C(C)(C)C)nc21 (as salt: hydrochloride) [Compound 43, (R)-8-benzyl-2-tert-butyl-7,8-dihydro-4-propyl-1H-imidazo[2,1-i]purin-5(4H)-one hydrochloride] | – |
| – | CC(C)[C@H]1CC[C@H](C(=O)N[C@H](Cc2ccccc2)C(=O)O)CC1 [AY4166, AY-4166, reference compound] | Amount of secreted insulin (ng/ml) avg (MIN6 cell; drug concentration 1.0 μM): 195.1 ng/mL; insulin secretion enhancing action at low glucose (MIN6 cell): showed marked secretion enhancing action |
| – | CCCN1C(=O)N2CC(Cc3ccc(F)cc3)N=C2c2[nH]c(C3CCCC3)nc21 (centres unmarked) [Compound 18, 2-cyclopentyl-8-(4-fluorobenzyl)-7,8-dihydro-4-propyl-1H-imidazo[2,1-i]purin-5(4H)-one hydrochloride] | Amount of secreted insulin (ng/ml) avg (MIN6 cell; drug concentration 1.0 μM): 181.9 ng/mL |
| – | CCCN1C(=O)N2CC(Cc3ccc(Cl)cc3)N=C2c2[nH]c(C3CCCC3)nc21 (centres unmarked) [Compound 20, 8-(4-chlorobenzyl)-2-cyclopentyl-7,8-dihydro-4-propyl-1H-imidazo[2,1-i]purin-5(4H)-one hydrochloride] | Amount of secreted insulin (ng/ml) avg (MIN6 cell; drug concentration 1.0 μM): 235.9 ng/mL |
| – | CCCN1C(=O)N2C[C@@H](Cc3ccccc3)N=C2c2[nH]c(C3CCC3)nc21 [Compound 37, (R)-8-benzyl-2-cyclobutyl-7,8-dihydro-4-propyl-1H-imidazo[2,1-i]purin-5(4H)-one hydrochloride] | Amount of secreted insulin (ng/ml) avg (MIN6 cell; drug concentration 1.0 μM): 202.8 ng/mL |
| – | CCCN1C(=O)N2C[C@@H](Cc3ccccc3)N=C2c2[nH]c(C(C)(C)C)nc21 [Compound 43, (R)-8-benzyl-2-tert-butyl-7,8-dihydro-4-propyl-1H-imidazo[2,1-i]purin-5(4H)-one hydrochloride] | Amount of secreted insulin (ng/ml) avg (MIN6 cell; drug concentration 1.0 μM): 199.1 ng/mL |
| – | CCCN1C(=O)N2CC(Cc3ccc(F)cc3)N=C2c2[nH]c(C3CCCCC3)nc21 (centres unmarked) [Compound 50, 2-cyclohexyl-8-(4-fluorobenzyl)-7,8-dihydro-4-propyl-1H-imidazo[2,1-i]purin-5(4H)-one hydrochloride] | Amount of secreted insulin (ng/ml) avg (MIN6 cell; drug concentration 1.0 μM): 209.5 ng/mL |
| – | CCCN1C(=O)N2CC(Cc3cc(Cl)ccc3Cl)N=C2c2[nH]c(C3CCCC3)nc21 (centres unmarked) [Compound 65, 2-cyclopentyl-8-(2,5-dichlorobenzyl)-7,8-dihydro-4-propyl-1H-imidazo[2,1-i]purin-5(4H)-one hydrochloride] | Amount of secreted insulin (ng/ml) avg (MIN6 cell; drug concentration 1.0 μM): 207.8 ng/mL |
| 204 to 206 | CCCN1C(=O)N2C[C@H](C(C)(C)C)N=C2c2[nH]c(-c3ccoc3)nc21 [Compound 67, (S)-8-tert-butyl-2-(3-furyl)-7,8-dihydro-4-propyl-1H-imidazo[2,1-i]purin-5(4H)-one] | – |
| – | COc1ccc(Cl)cc1C(=O)NCCc1ccc(S(=O)(=O)NC(=O)NC2CCCCC2)cc1 [Glibenclamide, reference compound] | Amount of secreted insulin (ng/ml) avg (MIN6 cell; drug concentration 0.1 μM): 177.8 ng/mL; insulin secretion enhancing action at low glucose (MIN6 cell): showed marked secretion enhancing action |

| Structure (SMILES) | melting point [°C] | also measured |
| --- | --- | --- |
| CCCN1C(=O)N2CC(Cc3ccc(F)cc3)N=C2c2[nH]c(C3CCCC3)nc21 (centres unmarked) (as salt: hydrochloride) [Compound 18, 2-cyclopentyl-8-(4-fluorobenzyl)-7,8-dihydro-4-propyl-1H-imidazo[2,1-i]purin-5(4H)-one hydrochloride] | 226 to 228 | – |
| CCCN1C(=O)N2CC(Cc3ccc(Cl)cc3)N=C2c2[nH]c(C3CCCC3)nc21 (centres unmarked) (as salt: hydrochloride) [Compound 20, 8-(4-chlorobenzyl)-2-cyclopentyl-7,8-dihydro-4-propyl-1H-imidazo[2,1-i]purin-5(4H)-one hydrochloride] | 222 to 224 | – |
| CCCN1C(=O)N2CC(Cc3ccc(Br)cc3)N=C2c2[nH]c(C3CCCC3)nc21 (centres unmarked) (as salt: hydrochloride) [Compound 23, 8-(4-bromobenzyl)-2-cyclopentyl-7,8-dihydro-4-propyl-1H-imidazo[2,1-i]purin-5(4H)-one hydrochloride] | 184 to 186 | – |
| CCCN1C(=O)N2CC(CCc3ccccc3)N=C2c2[nH]c(C3CCCC3)nc21 (centres unmarked) (as salt: hydrochloride) [Compound 31, 2-cyclopentyl-7,8-dihydro-8-phenethyl-4-propyl-1H-imidazo[2,1-i]purin-5(4H)-one hydrochloride] | 171 to 173 | – |
| CCCc1nc2c([nH]1)C1=N[C@H](Cc3ccccc3)CN1C(=O)N2CCC (as salt: hydrochloride) [Compound 35, (R)-8-benzyl-7,8-dihydro-2,4-dipropyl-1H-imidazo[2,1-i]purin-5(4H)-one hydrochloride] | 195 to 197 | – |
| CCCN1C(=O)N2CC(Cc3ccc(F)cc3)N=C2c2[nH]c(C3CCCCC3)nc21 (centres unmarked) (as salt: hydrochloride) [Compound 50, 2-cyclohexyl-8-(4-fluorobenzyl)-7,8-dihydro-4-propyl-1H-imidazo[2,1-i]purin-5(4H)-one hydrochloride] | 237 to 239 | – |
| CCCN1C(=O)N2CC(Cc3cc(Cl)ccc3Cl)N=C2c2[nH]c(C3CCCC3)nc21 (centres unmarked) (as salt: hydrochloride) [Compound 65, 2-cyclopentyl-8-(2,5-dichlorobenzyl)-7,8-dihydro-4-propyl-1H-imidazo[2,1-i]purin-5(4H)-one hydrochloride] | 172 to 173 | – |

From patent US6489331B1, “Remedies for diabetes” (Kyowa Hakko Kogyo Co., Ltd., priority 1998, dated 2002)
